In patent US20130005698A1, “PHARMACEUTICAL FOR PREVENTING OR TREATING AN INNER EAR DISORDER” (University of Tsukuba, priority 2010, published 2013):

Key:
[1] = tested on: high-level noise exposure mice; experiment: Evaluation of inner ear disorders in high-level noise exposure mice models (ABR threshold, cochlear hair cell loss); assay type: in vivo, B6 mice; conditions: for effect on increase of the auditory brainstem response (ABR) threshold caused by exposure to high-level noise: one week and two weeks after exposure
Protocol: The test was carried out using high-level noise exposure mice. […] The auditory brainstem response (ABR) threshold was measured immediately before the exposure to high-level noise (initial value). At 1 week and 2 weeks after the exposure for 4 hours, the ABR was measured. For the prevention test, after measuring the ABR threshold at 2 weeks after, the inner ears were excised and fixed so as to allow pathological assessment of the loss of two types of hair cells, or inner and outer hair cells within the cochlea. The pathological assessment of the hair cell loss was carried out on the inner hair cells (one line of inner hair cells is represented by IHC) and outer hair cells (three lines of outer hair cells are represented by OHC 1, 2, and 3 from the inside to outside). The verification was carried out by analysis of variance (Fisher's test as post-hoc test). The mice were divided into two groups: a group exposed to high-level noise (control group, n=10), and a group exposed to high-level noise and administrated with fidarestat at a dose of 32 mg/kg/day (fidarestat-administrated group, n=10). The ABR and pathological assessment were carried out in 10 and 5 mice of each group, respectively. Fidarestat was administered mixed with the feed during the period from two days before to two weeks after the exposure to high-level noise. The mice were divided into five groups: a group exposed to high-level noise (control group, n=6), two group exposed to high-level noise and administrated with fidarestat at doses of 8 mg/kg/day or 32 mg/kg/day (fidarestat-administrated groups, n=6), a group exposed to high-level noise, and administrated with prednisolone at a dose of 1 mg/kg/day (prednisolone-administrated group, n=6), and a group exposed to high-level noise, and administrated of combination with prednisolone at a dose of 1 mg/kg/day and fidarestat at a dose of 32 mg/kg/day (combination use group, n=6). The ABR was carried out in 6 mice of each group. Fidarestat was administered mixed with the feed during the period immediately after to two weeks after the exposure to high-level noise. Prednisolone was orally administered immediately after the exposure to high-level noise.

[2] = tested on: outer hair cells of the organ of Corti; experiment: Gentamicin-induced loss of outer hair cells model (cultured organ of Corti); assay type: cell-based, SD rats; conditions: 48 hours culture; for loss rate of gentamicin-induced outer hair cells loss: control 50%
Protocol: After excision of the cochlea from SD rats of 3-5 days old, lateral walls were removed, and then the basal turn of the organ of Corti was extracted. The organ of Corti was incubated overnight, and then cultured in culture solutions containing gentamicin ([…]) and fidarestat at different concentrations (0, 0.05, 0.1, 0.2, 0.5, 1, and 2 μM) for 48 hours. After culturing, the organ of corti was fixed with 4% paraformaldehyde. The culture solution was a Dulbecco's modified eagles medium (DMEM solution) containing 10% fetal bovine serum, HEPES ([…]), and penicillin G ([…]), and the organ was cultured at 37° C., 5% CO2, at a humidity of 95%.

## NC(=O)[C@@H]1C[C@]2(NC(=O)NC2=O)c2cc(F)ccc2O1 [fidarestat, (2S,4S)-6-fluoro-2′,5′-dioxospiro[chroman-4,4′-imidazolidine]-2-carboxamide]
[1]; fidarestat 32 mg/kg/day vs prednisolone 1 mg/kg/day
  therapeutic effect on ABR threshold increase compared to prednisolone-administrated group: equivalent effect
[1]; prophylactic 32 mg/kg/day, two weeks after exposure to high-level noise
  effect on increase of the loss rate of cochlear outer hair cells: significantly inhibited
[1]; prophylactic administration, 32 mg/kg/day mixed with feed from two days before to two weeks after exposure
  effect on increase of the auditory brainstem response (ABR) threshold caused by exposure to high-level noise: significantly inhibited
[1]; therapeutic administration, mixed with feed from immediately after to two weeks after exposure
  effect on increase of the auditory brainstem response (ABR) threshold caused by exposure to high-level noise: significantly inhibited
[2]; fidarestat 0.1 μM
  loss rate of gentamicin-induced outer hair cells loss: significantly reduced
[2]; fidarestat 0.5 μM or more
  outer hair cells survival: 75%
  loss rate of gentamicin-induced outer hair cells loss: 25%
